Assay results as given in ChEMBL document CHEMBL3286240, “Inhibition of Enterococcus faecalis biofilm formation by highly active lactones and lactams analogues of rubrolides” (Eur J Med Chem, 2014).
≈ marks a conversion by molar mass, not a printed value.

Tested on: Enterococcus faecalis
Test: Antimicrobial activity against Enterococcus faecalis assessed as bacterial growth at 10.9 ug/ml after 20 hrs by microtiter plate assay
Type: functional

Compound	Activity
COc1ccccc1C1=C(Br)C(=O)O/C1=C\c1ccc(C(F)(F)F)cc1	15.2%
COc1ccc(Br)cc1C1=C(Br)C(=O)O/C1=C\c1cccc(Cl)c1	18.4%
COc1ccc(Br)cc1C1=C(Br)C(=O)O/C1=C\c1ccc(Br)cc1	19.9%
COc1ccc(C)cc1C1=C(Br)C(=O)O/C1=C\c1cccc(Cl)c1	17.7%
COc1ccc(C)cc1C1=C(Br)C(=O)O/C1=C\c1ccccc1Cl	5.1%

Tested on: Enterococcus faecalis
Test: Antimicrobial activity against Enterococcus faecalis assessed as bacterial growth at 2.73 ug/ml after 20 hrs by microtiter plate assay
Type: functional

Compound	Activity
COc1ccccc1C1=C(Br)C(=O)O/C1=C\c1ccc(C(F)(F)F)cc1	-4.8%
COc1ccc(Br)cc1C1=C(Br)C(=O)O/C1=C\c1cccc(Cl)c1	16%
COc1ccc(Br)cc1C1=C(Br)C(=O)O/C1=C\c1ccc(Br)cc1	1.1%
COc1ccc(C)cc1C1=C(Br)C(=O)O/C1=C\c1cccc(Cl)c1	9.8%
COc1ccc(C)cc1C1=C(Br)C(=O)O/C1=C\c1ccccc1Cl	19.9%

Tested on: Enterococcus faecalis
Test: Antimicrobial activity against Enterococcus faecalis assessed as bacterial growth at 0.17 ug/ml after 20 hrs by microtiter plate assay
Type: functional

Compound	Activity
COc1ccccc1C1=C(Br)C(=O)O/C1=C\c1ccc(C(F)(F)F)cc1	-4.5%
COc1ccc(Br)cc1C1=C(Br)C(=O)O/C1=C\c1cccc(Cl)c1	7.2%
COc1ccc(Br)cc1C1=C(Br)C(=O)O/C1=C\c1ccc(Br)cc1	0.8%
COc1ccc(C)cc1C1=C(Br)C(=O)O/C1=C\c1cccc(Cl)c1	-6.4%
COc1ccc(C)cc1C1=C(Br)C(=O)O/C1=C\c1ccccc1Cl	21%

Tested on: Enterococcus faecalis
Test: Antimicrobial activity against Enterococcus faecalis assessed as bacterial growth at 43.8 ug/ml after 20 hrs by microtiter plate assay
Type: functional

Compound	Activity
COc1ccccc1C1=C(Br)C(=O)O/C1=C\c1ccc(C(F)(F)F)cc1	46.3%
COc1ccc(Br)cc1C1=C(Br)C(=O)O/C1=C\c1cccc(Cl)c1	38.8%
COc1ccc(Br)cc1C1=C(Br)C(=O)O/C1=C\c1ccc(Br)cc1	22.3%
COc1ccc(C)cc1C1=C(Br)C(=O)O/C1=C\c1cccc(Cl)c1	39.6%
COc1ccc(C)cc1C1=C(Br)C(=O)O/C1=C\c1ccccc1Cl	28.8%

Tested on: Enterococcus faecalis
Test: Antimicrobial activity against Enterococcus faecalis assessed as bacterial growth at 1.37 ug/ml after 20 hrs by microtiter plate assay
Type: functional

Compound	Activity
COc1ccccc1C1=C(Br)C(=O)O/C1=C\c1ccc(C(F)(F)F)cc1	-7.6%
COc1ccc(Br)cc1C1=C(Br)C(=O)O/C1=C\c1cccc(Cl)c1	14.4%
COc1ccc(Br)cc1C1=C(Br)C(=O)O/C1=C\c1ccc(Br)cc1	8.8%
COc1ccc(C)cc1C1=C(Br)C(=O)O/C1=C\c1cccc(Cl)c1	9.1%
COc1ccc(C)cc1C1=C(Br)C(=O)O/C1=C\c1ccccc1Cl	27.1%

Tested on: Enterococcus faecalis
Test: Antimicrobial activity against Enterococcus faecalis assessed as bacterial growth at 87.5 ug/ml after 20 hrs by microtiter plate assay
Type: functional

Compound	Activity
COc1ccccc1C1=C(Br)C(=O)O/C1=C\c1ccc(C(F)(F)F)cc1	66.5%
COc1ccc(Br)cc1C1=C(Br)C(=O)O/C1=C\c1cccc(Cl)c1	72.1%
COc1ccc(Br)cc1C1=C(Br)C(=O)O/C1=C\c1ccc(Br)cc1	35.9%
COc1ccc(C)cc1C1=C(Br)C(=O)O/C1=C\c1cccc(Cl)c1	55.8%
COc1ccc(C)cc1C1=C(Br)C(=O)O/C1=C\c1ccccc1Cl	63.8%

Tested on: Enterococcus faecalis
Test: Antimicrobial activity against Enterococcus faecalis assessed as inhibition of biofilm formation after 20 hrs by crystal violet staining analysis
Type: functional, organism-based

Compound	IC50
COc1ccc(Br)cc1C1=C(Br)C(=O)O/C1=C\c1cccc(Cl)c1	6.91 mg/L (≈ 14.7 µM)
COc1ccc(Br)cc1C1=C(Br)C(=O)O/C1=C\c1ccc(Br)cc1	18.7 mg/L (≈ 36.3 µM)
COc1ccc(C)cc1C1=C(Br)C(=O)O/C1=C\c1cccc(Cl)c1	1.51 mg/L (≈ 3.72 µM)

Tested on: Enterococcus faecalis
Test: Antimicrobial activity against Enterococcus faecalis assessed as bacterial growth at 21.9 ug/ml after 20 hrs by microtiter plate assay
Type: functional

Compound	Activity
COc1ccccc1C1=C(Br)C(=O)O/C1=C\c1ccc(C(F)(F)F)cc1	26%
COc1ccc(Br)cc1C1=C(Br)C(=O)O/C1=C\c1cccc(Cl)c1	34.8%
COc1ccc(Br)cc1C1=C(Br)C(=O)O/C1=C\c1ccc(Br)cc1	9.6%
COc1ccc(C)cc1C1=C(Br)C(=O)O/C1=C\c1cccc(Cl)c1	19.4%
COc1ccc(C)cc1C1=C(Br)C(=O)O/C1=C\c1ccccc1Cl	18.2%

Tested on: Enterococcus faecalis
Test: Antimicrobial activity against Enterococcus faecalis assessed as bacterial growth at 0.34 ug/ml after 20 hrs by microtiter plate assay
Type: functional

Compound	Activity
COc1ccccc1C1=C(Br)C(=O)O/C1=C\c1ccc(C(F)(F)F)cc1	-6.7%
COc1ccc(Br)cc1C1=C(Br)C(=O)O/C1=C\c1cccc(Cl)c1	0.8%
COc1ccc(Br)cc1C1=C(Br)C(=O)O/C1=C\c1ccc(Br)cc1	-0.3%
COc1ccc(C)cc1C1=C(Br)C(=O)O/C1=C\c1cccc(Cl)c1	-7.9%
COc1ccc(C)cc1C1=C(Br)C(=O)O/C1=C\c1ccccc1Cl	29.9%

Tested on: Enterococcus faecalis
Test: Antimicrobial activity against Enterococcus faecalis assessed as bacterial growth at 5.5 ug/ml after 20 hrs by microtiter plate assay
Type: functional

Compound	Activity
COc1ccccc1C1=C(Br)C(=O)O/C1=C\c1ccc(C(F)(F)F)cc1	7.1%
COc1ccc(Br)cc1C1=C(Br)C(=O)O/C1=C\c1cccc(Cl)c1	14.9%
COc1ccc(Br)cc1C1=C(Br)C(=O)O/C1=C\c1ccc(Br)cc1	9.6%
COc1ccc(C)cc1C1=C(Br)C(=O)O/C1=C\c1cccc(Cl)c1	17.4%
COc1ccc(C)cc1C1=C(Br)C(=O)O/C1=C\c1ccccc1Cl	19.1%

Tested on: Enterococcus faecalis
Test: Antimicrobial activity against Enterococcus faecalis assessed as bacterial growth at 0.68 ug/ml after 20 hrs by microtiter plate assay
Type: functional

Compound	Activity
COc1ccccc1C1=C(Br)C(=O)O/C1=C\c1ccc(C(F)(F)F)cc1	-9.1%
COc1ccc(Br)cc1C1=C(Br)C(=O)O/C1=C\c1cccc(Cl)c1	4.8%
COc1ccc(Br)cc1C1=C(Br)C(=O)O/C1=C\c1ccc(Br)cc1	10.4%
COc1ccc(C)cc1C1=C(Br)C(=O)O/C1=C\c1cccc(Cl)c1	-4.7%
COc1ccc(C)cc1C1=C(Br)C(=O)O/C1=C\c1ccccc1Cl	33.9%
